≈ marks a conversion by molar mass, not a printed value. One block for each molecule: values may come before it.
Columns and labels:
[1] = Hepatic extraction ratio in human liver microsomes; format: ADME, Microsome; conditions: read-out: ERH
[2] = Hepatic extraction ratio in human hepatocytes at 10 uM incubated for 2 hrs by LC-MS analysis; format: ADME, cell-based, Hepatocyte; conditions: read-out: ERH
GTPase KRas = GTPase KRas (Homo sapiens, UniProt P01116, G12C)
[3] = Half life in human whole blood at 5 uM by LC-MS/MS analysis; format: ADME, tissue-based
[4] = Half life in dog whole blood at 5 uM by LC-MS/MS analysis; format: ADME, tissue-based, Canis lupus familiaris
[5] = Half life in mouse whole blood at 5 uM by LC-MS/MS analysis; format: ADME, tissue-based
[6] = AUC (infinity) in beagle dog at 10 mg/kg, po; format: ADME, organism-based, Canis lupus familiaris; design: dose 10 mg/kg, time infinity, route oral; conditions: in vivo
[7] = AUC (infinity) in CD1 mouse at 30 mg/kg, po; format: ADME, organism-based; design: dose 30 mg/kg, time infinity, route oral; conditions: in vivo
[8] = Oral bioavailability in beagle dog at 10 mg/kg; format: ADME, organism-based, Canis lupus familiaris; conditions: in vivo
[9] = tested on: GTPase KRas (Homo sapiens), P01116 [G12C]; assay: In-vivo target engagement at KRAS G12C mutant in athymic nude-Foxn1nu mouse xenografted with human NCI-H358 cells assessed as KRAS G12C modification level in tumor lysate at 10 mg/kg, po dosed via gavage as single administration measured after 6 hrs by LC-MS analysis relative to control; format: functional, organism-based; conditions: Neoplasm
Chain of GTPase KRas (Homo sapiens), P01116 [G12C] (P01116 whole entry G12C): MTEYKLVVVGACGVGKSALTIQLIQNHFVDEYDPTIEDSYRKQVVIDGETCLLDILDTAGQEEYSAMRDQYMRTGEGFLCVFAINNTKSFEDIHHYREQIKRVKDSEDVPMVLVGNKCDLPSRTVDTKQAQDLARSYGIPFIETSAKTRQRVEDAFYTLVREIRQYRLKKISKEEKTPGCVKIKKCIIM

[10] = Clearance in beagle dog at 3 mg/kg, iv; format: ADME, organism-based, Canis lupus familiaris; conditions: in vivo
[11] = Clearance in CD1 mouse at 3 mg/kg, iv; format: ADME, organism-based; conditions: in vivo
[12] = Volume of distribution at steady state in beagle dog at 3 mg/kg, iv; format: ADME, organism-based, Canis lupus familiaris; conditions: in vivo, read-out: Vdss
[13] = Half life in CD1 mouse at 3 mg/kg, iv; format: ADME, organism-based; conditions: in vivo
MIA PaCa-2 [14] = assay: Antitumor activity against human MIAPaCa2 cells xenografted in athymic nude-Foxn1nu mouse assessed as induction of tumor regression at 30 mg/kg, po dosed daily via gavage for 16 days followed by drug cessation and measured up to 40 days; format: functional
[15] = Cmax in beagle dog at 10 mg/kg, po; format: ADME, organism-based, Canis lupus familiaris; design: dose 10 mg/kg, route oral; conditions: in vivo
MIA PaCa-2 [16] = assay: Antitumor activity against human MIAPaCa2 cells xenografted in athymic nude-Foxn1nu mouse assessed as induction of tumor regression at 30 mg/kg, po dosed daily via gavage for 16 days; format: functional
[17] = tested on: GTPase KRas (Homo sapiens), P01116 [G12C]; assay: In-vivo target engagement at KRAS G12C mutant in athymic nude-Foxn1nu mouse xenografted with human NCI-H358 cells assessed as KRAS G12C modification level in tumor lysate at 30 mg/kg, po dosed via gavage as single administration measured after 6 hrs by LC-MS analysis relative to control; format: functional, organism-based; conditions: Neoplasm
[18] = Volume of distribution at steady state in CD1 mouse at 3 mg/kg, iv; format: ADME, organism-based; conditions: in vivo, read-out: Vdss
[19] = Half life in beagle dog at 3 mg/kg, iv; format: ADME, organism-based, Canis lupus familiaris; conditions: in vivo
[20] = biological target: Glutathione S-transferase P (Homo sapiens) (UniProt P09211); assay: Drug metabolism in human whole blood assessed as GSTP1-1-mediated GSH conjugation; format: tissue-based
Chain of Glutathione S-transferase P (Homo sapiens) (P09211 2-210 limits assumed): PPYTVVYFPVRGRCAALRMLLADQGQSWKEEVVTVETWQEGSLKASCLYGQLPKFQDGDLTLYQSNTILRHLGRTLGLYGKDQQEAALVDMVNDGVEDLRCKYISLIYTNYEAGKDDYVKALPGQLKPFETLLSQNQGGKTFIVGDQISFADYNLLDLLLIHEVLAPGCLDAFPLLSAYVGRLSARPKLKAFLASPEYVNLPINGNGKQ

[21] = Cmax in CD1 mouse at 30 mg/kg, po; format: ADME, organism-based; design: dose 30 mg/kg, route oral; conditions: in vivo
[22] = Tmax in CD1 mouse at 30 mg/kg, po; format: ADME, organism-based; conditions: in vivo
[23] = Oral bioavailability in CD1 mouse at 30 mg/kg; format: ADME, organism-based; conditions: in vivo
[24] = tested on: GTPase KRas (Homo sapiens), P01116 [G12C]; assay: In-vivo target engagement at KRAS G12C mutant in athymic nude-Foxn1nu mouse xenografted with human NCI-H358 cells assessed as KRAS G12C modification level in tumor lysate at 100 mg/kg, po dosed via gavage as single administration measured after 6 hrs by LC-MS analysis relative to contro; format: functional, organism-based; conditions: Neoplasm
[25] = Tmax in beagle dog at 10 mg/kg, po; format: ADME, organism-based, Canis lupus familiaris; conditions: in vivo
[26] = Half life in presence of GSH in phosphate buffer at 1 uM at 37 degC by LC-MS/M analysis; format: physicochemical; conditions: phosphate buffer with GSH
[27] = Permeability ratio in pig LLC-PK1 cells; format: ADME, cell-based, Sus scrofa
[28] = Protein binding in human plasma; format: ADME, cell-free; conditions: read-out: PPB (converted)
[29] = Protein binding in mouse plasma; format: ADME, cell-free; conditions: read-out: PPB (converted)
[30] = Apparent permeability in pig LLC-PK1 cells; format: ADME, cell-based, Sus scrofa; conditions: read-out: permeability
[31] = Solubility in FaSSIF at pH 6.5; format: physicochemical
[32] = tested on: GTPase KRas (Homo sapiens), P01116 [G12C]; assay: Inhibition of KRAS G12C mutant in human NCI-H358 cells assessed as reduction in ERK phosphorylation incubated for 3 hrs by in-cell western method
[33] = AUC (infinity) in CD1 mouse at 10 mg/kg, po; format: ADME, organism-based; design: dose 10 mg/kg, route oral, time infinity; conditions: in vivo
[34] = Cmax in CD1 mouse at 10 mg/kg, po; format: ADME, organism-based; design: dose 10 mg/kg, route oral; conditions: in vivo
[35] = Oral bioavailability in CD1 mouse at 10 mg/kg; format: ADME, organism-based; conditions: in vivo
[36] = Tmax in CD1 mouse at 10 mg/kg, po; format: ADME, organism-based; conditions: in vivo
[37] = Drug metabolism in mouse hepatocytes assessed as parent compound remaining at 10 uM incubated for 2 hrs by LC-MS analysis; format: ADME, cell-based, Hepatocyte; conditions: read-out: Stability

Chain of GTPase KRas (P01116 whole entry G12C): as the sequence (P01116 whole entry G12C) above

SMILES: C=CC(=O)N1CCN(c2nc(OC[C@@H]3CCCN3C)nc3c2CCN(c2c(C)c(C)cc4[nH]ncc24)C3)CC1
hepatic extraction ratio [1]: < 0.55
hepatic extraction ratio at 2 h, 10 µM [2]: < 0.55
IC50 (GTPase KRas): 254 nM

SMILES: COC/C=C/C(=O)N1CCN(c2nc(OC[C@@H]3CCCN3C)nc3c2CCN(c2cccc4cccc(Cl)c24)C3)C[C@@H]1CC#N
half-life at 5 µM [3]: > 50 h
half-life at 5 µM [4]: 22 h
IC50 (GTPase KRas): 9 nM
half-life at 5 µM [5]: 11 h

SMILES: C=CC(=O)N1CCN(c2nc(OC[C@@H]3CCCN3C)nc3c2CCN(c2c(CC)ccc4[nH]ncc24)C3)CC1
IC50 (GTPase KRas): 1080 nM

SMILES: C=CC(=O)N1CCN(c2nc(OC[C@@H]3CCCN3C)nc3c2CCN(c2cccc4cccc(OC)c24)C3)C[C@@H]1CC#N
IC50 (GTPase KRas): 22 nM

SMILES: C=CC(=O)N1CCN(c2nc(OC[C@@H]3CCCN3C)nc3c2CCN(c2cccc4ccccc24)C3)C(CC#N)C1 (stereo partly specified)
IC50 (GTPase KRas): 3320 nM

SMILES: C=CC(=O)N1CCN(c2nc(OC[C@@H]3CCCN3C)nc3c2CCN(c2cccc4ccccc24)C3)CC1CC#N (stereo partly specified)
IC50 (GTPase KRas): 14 nM

SMILES: C=CC(=O)N1CCN(c2nc(OC[C@@H]3CCCN3C)nc3c2CCN(c2cccc4cccc(C)c24)C3)C[C@@H]1CC#N
AUC(0-inf) [6]: 39.5 ng·h/mL
AUC(0-inf) [7]: 4910 ng·h/mL
bioavailability [8]: 3.67%
Activity [9]: 20%
clearance [10]: 151 mL/min/kg
clearance [11]: 31.6 mL/min/kg
Vd [12]: 6.16 L/kg
half-life [13]: 1.33 h
Activity (MIA PaCa-2 [14]): 100%
Cmax [15]: 17.8 ng/mL
IC50 (GTPase KRas): 1 nM
Activity (MIA PaCa-2 [16]): 100%
Activity [17]: 60%
Vd [18]: 1.91 L/kg
half-life [19]: 0.966 h
Drug metabolism [20]: Metabolite detected
Cmax [21]: 1660 ng/mL
Tmax [22]: 0.5 h
bioavailability [23]: 31.1%
Activity [24]: 80%
Tmax [25]: 1.17 h

SMILES: C=CC(=O)N1CCN(c2nc(OC[C@@H]3CCCN3C)nc3c2CCN(c2c(C(F)(F)F)ccc4[nH]ncc24)C3)CC1
hepatic extraction ratio [1]: < 0.55
hepatic extraction ratio at 2 h, 10 µM [2]: < 0.55
IC50 (GTPase KRas): 351 nM

AUC(0-inf) [6]: 31.9 ng·h/mL
AUC(0-inf) [7]: 2270 ng·h/mL
bioavailability [8]: 4.12%
Activity [9]: 70%
clearance [10]: 225 mL/min/kg
clearance [11]: 37.3 mL/min/kg
Vd [12]: 7.91 L/kg
half-life at 5 µM [3]: 14 h
half-life [13]: 0.496 h
half-life at 5 µM [4]: 2 h
Cmax [15]: 16.3 ng/mL
Activity [17]: 89%
half-life at 5 µM [5]: 5 h
Vd [18]: 0.867 L/kg
half-life [19]: 0.826 h
Drug metabolism [20]: Metabolite detected
Cmax [21]: 2460 ng/mL
Tmax [22]: 0.25 h
bioavailability [23]: 16.9%
Activity [24]: > 90%
Tmax [25]: 0.833 h
SMILES: C=CC(=O)N1CCN(c2nc(OC[C@@H]3CCCN3C)nc3c2CCN(c2cccc4cccc(Cl)c24)C3)C[C@@H]1CC#N
Activity (MIA PaCa-2 [14]): 100%
Activity (MIA PaCa-2 [16]): 100%

SMILES: C=CC(=O)N1CCN(c2nc(OC[C@@H]3CCCN3C)nc3c2CCN(c2cccc4ccccc24)C3)CC1CCO (stereo partly specified)
IC50 (GTPase KRas): > 5000 nM

SMILES: C=CC(=O)N1CCN(c2nc(OC[C@@H]3CCCN3C)nc3c2CCN(c2cccc4ccccc24)C3)C[C@H]1CC#N
half-life at 1 µM [26]: 1 h
IC50 (GTPase KRas): 1020 nM

SMILES: C=CC(=O)N1CCN(c2nc(OC[C@@H]3CCCN3C)nc3c2CCN(c2cccc4ccccc24)C3)C(CCO)C1 (stereo partly specified)
IC50 (GTPase KRas): 4840 nM

SMILES: C=CC(=O)N1CCN(c2nc(OC[C@@H]3CCCN3C)nc3c2CCN(c2cccc4cccc(C#N)c24)C3)C[C@@H]1CC#N
IC50 (GTPase KRas): 64 nM

SMILES: C=CC(=O)N1CCN(c2nc(OC[C@@H]3CCCN3C)nc3c2CCN(c2c(C(C)C)ccc4[nH]ncc24)C3)CC1
IC50 (GTPase KRas): 1180 nM

SMILES: C=CC(=O)N1CCN(c2nc(OC[C@@H]3CCCN3C)nc3c2CCN(c2cccc4cccc(CC)c24)C3)C[C@@H]1CC#N
IC50 (GTPase KRas): 6 nM

SMILES: C=CC(=O)N1CCN(c2nc(OC[C@@H]3CCCN3C)nc3c2CCN(c2cccc4ccccc24)C3)C[C@@H]1CC#N
hepatic extraction ratio [1]: 0.45
hepatic extraction ratio at 2 h, 10 µM [2]: 0.9
half-life at 1 µM [26]: 4 h
Ratio [27]: 28
fraction unbound [28]: 0.05
IC50 (GTPase KRas): 10 nM
fraction unbound [29]: 0.05
Papp [30]: 2.2 ×10⁻⁶ cm/s
solubility [31]: 800 µg/mL (≈ 1450 µM)
fIC50 [32]: 200 nM

SMILES: CN1CCC[C@H]1COc1nc2c(c(N3CCN(C(=O)/C=C/CF)[C@@H](CC#N)C3)n1)CCN(c1cccc3cccc(Cl)c13)C2
half-life at 5 µM [3]: > 50 h
half-life at 5 µM [4]: 9 h
IC50 (GTPase KRas): 3 nM
half-life at 5 µM [5]: 11 h

SMILES: C=CC(=O)N1CCN(c2nc(OC[C@@H]3CCCN3C)nc3c2CCN(c2c(C)ccc4[nH]ncc24)C3)CC1
IC50 (GTPase KRas): 1500 nM

SMILES: C=CC(=O)N1CCN(c2nc(OC[C@@H]3CCCN3C)nc3c2CCN(c2cccc4cccc(C(F)(F)F)c24)C3)C[C@@H]1CC#N
IC50 (GTPase KRas): 4 nM

SMILES: C=CC(=O)N1CCN(c2nc(OC[C@@H]3CCCN3C)nc3c2CCN(c2cccc4ccccc24)C3)CC1CO (stereo partly specified)
IC50 (GTPase KRas): 4630 nM

SMILES: C=CC(=O)N1CCN(c2nc(OC[C@@H]3CCCN3C)nc3c2CCN(c2cccc4ccccc24)C3)CC1
half-life at 1 µM [26]: 17 h
AUC [33]: 302 ng·h/mL
half-life [13]: 0.908 h
Cmax [34]: 131 ng/mL
F [35]: 13.9%
IC50 (GTPase KRas): 4400 nM
Vd [18]: 0.996 L/kg
Tmax [36]: 0.5 h

SMILES: C=CC(=O)N1CCN(c2nc(OC[C@@H]3CCCN3C)nc3c2CCN(c2cccc4ccccc24)C3)C(CO)C1 (stereo partly specified)
IC50 (GTPase KRas): 4530 nM

remaining at 2 h, 10 µM [37]: 4%
SMILES: C=CC(=O)N1CCN(c2nc(OC[C@@H]3CCCN3C)nc3c2CCN(c2cc(O)cc4ccccc24)C3)CC1

SMILES: C=C(OC)C(=O)N1CCN(c2nc(OC[C@@H]3CCCN3C)nc3c2CCN(c2cccc4cccc(Cl)c24)C3)C[C@@H]1CC#N
half-life at 5 µM [3]: 40 h
half-life at 5 µM [4]: > 50 h
IC50 (GTPase KRas): > 5000 nM
half-life at 5 µM [5]: > 50 h

From ChEMBL document CHEMBL4610106, “Identification of the Clinical Development Candidate MRTX849, a Covalent KRASG12C Inhibitor for the Treatment of Cancer” (J Med Chem, 2020)
